The test system of data set [1] is HBV replication in AML12HBV10 cells. Nature of the data set: Antiviral efficacy in AML12HBV10 cells (HBV DNA dot-blot hybridization). The format is cell-based, Hepatitis B virus (HBV). Particulars: Hepatitis B virus, AML12HBV10, 48 h, read-out: AML12HBV10 EC50, concentration that reduces the amount of HBV DNA by 50%, serial dilution 50 μM to 0.39 μM. As to the method:
The HBV replication inhibitors of the present invention are capable of treating and preventing diseases associated with HBV infection.
The antiviral efficacy of the compounds of the disclosure, as presented in Table 1, were determined in AML12HBV10 cells. AML12HBV10 is an immortalized murine hepatocyte (AML12)-derived stable cell line that supports robust HBV replication in a tetracycline inducible manner (Xu et al.). The cells were seeded into 96 well plates at a density of 2×10^4 cells per well and cultured in DMEM/F12 media with 10% fetal bovine serum in the absence of tetracycline to allow pgRNA transcription and HBV DNA replication. One day after seeding, cells were left untreated or treated with a serial dilution of testing compounds, ranging from 50 μM to 0.39 μM, for 48 hours. Cells were then lysed by adding into each well of 100 μl lysis buffer containing 10 mM Tris-HCl (pH 7.6), 1 mM EDTA, 100 mM NaCl and 1% NP-40 and incubated at 37° C. for 30 minutes. Half amount (50 μl) of cell lysate from each well was combined with equal volume of denaturing solution containing 0.5N NaOH and 1.5M NaCl. After 5 minute incubation, 100 µl of neutralization solution (1M Tris-HCl, pH 7.4, 1.5M NaCl) was added into each well. The denatured cell lysates (totally 200 μl) were applied onto Nylon membrane using 96-well dot-blot manifold (Biorad). HBV DNA in the cell lysates were determined by dot-blot hybridization with alpha-^32P-UTP-labelled riboprobe specific for HBV minus strand DNA. The antiviral efficacy of a compound of the disclosure was expressed as the concentration that reduces the amount of HBV DNA by 50% (EC50).

A short description of data set [2]: Cytotoxicity in AML12HBV10 cells (MTT assay). The data set is classed as cell-based, murine. To be noted: mouse, concentration that reduces viability by 50%, serial dilution 50 μM to 0.39 μM. The protocol: Determination of cytotoxicity of compounds of the disclosure in AML12HBV10 cells: To determine the cytotoxicity of the compounds, AML12HBV10 cells were seeded into 96-well plates at a density of 2×10^4 cells per well and cultured in DMEM/F12 media with 10% fetal bovine serum in the absence of tetracycline to allow pgRNA transcription and HBV DNA replication. One day after seeding, cells were left untreated or treated with a serial dilution of testing compounds, ranging from 50 μM to 0.39 μM, for 48 hours. The cell viability was measured by a MTT assay, following procedure provided by the manufacturer (Promega). The cytotoxicity of a compound was expressed as the concentration of compound that reduces the viability of the cells by 50% (CC50).
Background: Tetrazolium dyes change colour on reduction, which living cells bring about.

The subject of data set [3] is HBV replication in HepDES19 cells. Nature of the data set: Antiviral activity in HepDES19 cells (core-associated HBV DNA, Southern blot). The data set is classed as cell-based, Hepatitis B virus (HBV). Particulars: concentration that reduces core-associated HBV DNA by 50%, 6 days, serial dilution 10 μM to 0.018 μM. From the text: Determination of antiviral activity of compounds of the disclosure, as presented in Table 1, in human hepatoma-derived cell lines: To further confirm the antiviral activity of the compounds of the disclosure against HBV in human hepatocyte-derived cells, HepDES19 cells, a human hepatoma cell line supporting HBV replication in a tetracycline inducible manner (Guo et al., 2007), seeded into 12-well plates at a density of 5×10^5 cells per well and cultured in DMEM/F12 media with 10% fetal bovine serum and 1 μg/ml tetracycline. Two days after seeding, the cells were mock-treated or treated with a serial dilution of compounds of the disclosure, ranging from 10 μM to 0.018 μM, for 6 days in the absence of tetracycline. Upon the completion of treatment, cells were lysed by adding into each well of the 12-well plates 0.5 ml of lysis buffer containing 10 mM Tris-HCl (pH 8.0), 1 mM EDTA, 1% NP40 and 2% sucrose and incubating at 37° C. for 10 minutes. Cell debris and nuclei were removed by centrifugation and the supernatant was mixed with 130 μl of 35% polyethylene glycol (PEG) 8000 containing 1.5 M NaCl. After 1 hour incubation in ice, viral nucleocapsids were pelleted by centrifugation at 6,000×g for 5 min at 4° C., followed by 1 hour digestion at 37° C. in 400 μl of digestion buffer containing 0.5 mg/ml pronase (Calbiochem), 0.5% SDS, 150 mM NaCl, 25 mM Tris-HCl (pH 8.0) and 10 mM EDTA. The digestion mixture was extracted twice with phenol and DNA was precipitated with ethanol, dissolved in TE buffer (10 mM Tris-HCl, pH 8.0; 0.1 mM EDTA). One half of the DNA sample from each well was resolved by electrophoresis into a 1.5% agarose gel. The gel was then subjected to denaturation in a solution containing 0.5 M NaOH and 1.5 M NaCl, followed by neutralization in a buffer containing 1 M Tris-HCl (pH7.4) and 1.5 M NaCl. DNA was then blotted onto Hybond-XL membrane (GE Health care) in 20×SSC buffer. The amounts of cytoplasmic HBV core-associated HBV DNA were determined by Southern blot hybridization and the antiviral efficacy of a compound was expressed as its concentration that reduce the amount of HBV DNA by 50% (EC50) or 90% (EC90).

Setting [4] is: Hepatitis B virus, HepDES19, 144 h.

From patent US20190092720A1, “FUNCTIONALIZED BENZAMIDE DERIVATIVES AS ANTIVIRAL AGENTS AGAINST HBV INFECTION” (BARUCH S. BLUMBERG INSTITUTE, priority 2012, published 2019) come the findings set out here.

Structures are written as SMILES. Where only a bound is given, the exact number is not on record here.

What is called CC50 is the concentration at which the toxic effect on the cells reaches its halfway point. Lower therefore signals greater toxicity to the cells. On to `O=C(Nc1ccc(F)c(F)c1)c1cccc2c1OCCO2` [Entry 31], for which the EC50 in data set [1] was 0.17 µM. Also, the CC50 at 48 h in data set [2] was > 10 µM.
On to `O=C(Nc1cccc(Cl)c1)c1ccccc1F` [Entry 17], for which, in data set [1], the EC50 was determined as 16.5 µM. For the same compound, the CC50 at 48 h in data set [2] is > 50 µM.
On the same counts, the results for `O=C(Nc1cccc(Cl)c1)c1ccccc1` [Entry 8] are 46.2 µM and > 50 µM.
As to `O=C(Nc1cccc(Cl)c1)c1csc2ccccc12` [Entry 11], in data set [1], the EC50 came to 30 µM. Moreover, the CC50 at 48 h in data set [2] was > 50 µM.
On the same counts, the results for `O=C(Nc1ccc(F)cc1)c1cccc2c1OCCO2` [Entry 26] are 0.4 µM and > 10 µM.
`O=C(Nc1ccccc1F)c1cccc2c1OCCO2` [Entry 28]: the EC50 in data set [1] amounted to 10.8 µM. The CC50 at 48 h in data set [2] is > 10 µM.
`O=C(Nc1ccc(F)c(F)c1F)c1cccc2c1OCCO2` [Entry 39]: the EC50 in data set [1] was determined as 3 µM. Besides, the CC50 at 48 h in data set [2] is > 10 µM.
As for `O=C(Nc1ccc(O)cc1)c1scc2c1CCCC2` [Entry 1], the EC50 in data set [1] turned out to be 36 µM. In data set [2], the cytotoxic concentration (CC50) at 48 h was > 50 µM.
Turning to `O=C(Nc1cccc(Cl)c1)c1cccc(F)c1F` [Entry 12], the EC50 in data set [1] came to 30 µM. In data set [2], the CC50 at 48 h is > 50 µM.
On the same counts, the results for `O=C(Nc1ccc(F)cc1F)c1cccc(Cl)c1Cl` [Entry 34] are 13.2 µM and > 10 µM.
With `O=C(Nc1c(F)cc(F)cc1F)c1cccc2c1OCCO2` [Entry 40], the EC50 in data set [1] was 10.5 µM. Also, the CC50 at 48 h in data set [2] was > 10 µM.
For `O=C(Nc1ccc(F)c(F)c1)c1ccc2ccccc2c1` [Entry 21], the EC50 in data set [1] was 23.9 µM. Further, the CC50 at 48 h in data set [2] is > 50 µM.
Take `COc1cccc(NC(=O)c2scc3c2CCCC3)c1` [Entry 4]: the EC50 in data set [1] was determined as 8 µM. In addition, the CC50 at 48 h in data set [2] is > 50 µM.
On the same counts, the results for `O=C(Nc1cccc(C(F)(F)F)c1)c1scc2c1OCCO2` [Entry 5] are 8.5 µM and > 50 µM.
On the same counts, the results for `O=C(Nc1cccc(I)c1)c1scc2c1OCCO2` [Entry 9] are 2.8 µM and > 50 µM.
In the case of `O=C(Nc1ccc(F)c(F)c1)c1cccc(Cl)c1Cl` [Entry 33], the EC50 in data set [1] amounted to 1.86 µM. Besides, the CC50 at 48 h in data set [2] is > 10 µM.
On the same counts, the results for `O=C(Nc1cccc(F)c1)c1cccc2c1OCCO2` [Entry 25] are 0.41 µM and > 10 µM.
`O=C(Nc1ccc(Cl)c(Cl)c1)c1cccc2c1OCCO2` [Entry 35]: the EC50 in data set [1] came to 0.49 µM. Further, the CC50 at 48 h in data set [2] was > 10 µM.
Take `O=C(Nc1ccc(Cl)c(F)c1)c1cccc2c1CCCC2` [Entry 45]: the EC50 in data set [1] was determined as 1.66 µM. In data set [2], the CC50 at 48 h is > 25 µM.
On the same counts, the results for `O=C(Nc1cc(F)ccc1F)c1cccc2c1OCCO2` [Entry 30] are 14.9 µM and > 10 µM.
As to `O=C(Nc1cccc(Cl)c1)c1cccc(Cl)c1Cl` [Entry 14], the values for the EC50 in data set [1] and in data set [3] (setting [4]) were 8.3 µM and 22.2 µM, respectively. Besides, the CC50 at 48 h in data set [2] was > 50 µM.
`O=C(Nc1ccccc1)c1scc2c1OCCO2` [Entry 7]: the EC50 in data set [1] and in data set [3] was 3 µM in each case. Also, the CC50 at 48 h in data set [2] is > 50 µM.
`O=C(Nc1ccc(Cl)cc1F)c1cccc2c1OCCO2` [Entry 37]: the EC50 in data set [1] was determined as 8.88 µM. Also, the CC50 at 48 h in data set [2] is > 10 µM.
On the same counts, the results for `O=C(Nc1ccc(F)cc1Cl)c1cccc2c1OCCO2` [Entry 36] are 7.41 µM and > 10 µM.
On the same counts, the results for `O=C(Nc1ccc(F)cc1F)c1cccc2c1OCCO2` [Entry 32] are 8.53 µM and > 10 µM.
On the same counts, the results for `O=C(Nc1cccc(I)c1)c1ccc2ccccc2c1` [Entry 23] are 19.4 µM and > 50 µM.
Consider `O=C(Nc1ccc(F)c(F)c1)c1cccc2c1CCCC2` [Entry 46], for which the EC50 in data set [1] worked out at 1.48 µM. For the same compound, the CC50 at 48 h in data set [2] is > 25 µM.
`O=C(Nc1ccc(F)cc1)c1scc2c1CCCC2` [Entry 3]: the EC50 in data set [1] stood at 25 µM. The CC50 at 48 h in data set [2] is > 50 µM.
On the same counts, the results for `O=C(Nc1ccc(F)c(F)c1)c1scc2c1OCCO2` [Entry 22] are < 0.4 µM and > 50 µM.
For the compound `O=C(Nc1ccccc1)c1scc2c1CCCC2` [Entry 2], the EC50 in data set [1] was 9 µM. Further, the CC50 at 48 h in data set [2] was > 50 µM.
Take `O=C(Nc1cccc(Cl)c1)c1cccc2c1OCO2` [Entry 24]: in data set [1], the EC50 worked out at 1.14 µM. The CC50 at 48 h in data set [2] is > 10 µM.
As for `O=C(Nc1cccc(Cl)c1)c1cccc2c1OCCCO2` [Entry 42], in data set [1], the EC50 worked out at 2.75 µM. Moreover, in data set [2], the CC50 at 48 h was > 25 µM.
Consider `O=C(Nc1ccc(Br)cc1F)c1cccc2c1OCCO2` [Entry 29], for which, in data set [1], the EC50 turned out to be 10.6 µM. For the same compound, the CC50 at 48 h in data set [2] is > 10 µM.
For the compound `O=C(Nc1cccc(Cl)c1)c1cccc2ccccc12` [Entry 18], the EC50 amounted to 6.52 µM in data set [1] and 4.2 µM in data set [3] (setting [4]). Moreover, the CC50 at 48 h in data set [2] was > 50 µM.
For `O=C(Nc1cc(Cl)cc(Cl)c1)c1cccc2c1OCCO2` [Entry 20], the EC50 in data set [1] worked out at 4.85 µM. Also, the CC50 at 48 h in data set [2] is > 50 µM.
Turning to `O=C(Nc1cccc(OC(F)(F)F)c1)c1cccc2c1OCCO2` [Entry 27], the EC50 in data set [1] was found to be 11.2 µM. Also, the CC50 at 48 h in data set [2] was > 10 µM.
Turning to `O=C(Nc1ccc(Cl)c(F)c1)c1cccc2c1OCCO2` [Entry 41], the EC50 in data set [1] was determined as 1.48 µM. In data set [2], the CC50 at 48 h was > 25 µM.
On the same counts, the results for `O=C(Nc1ccc(F)c(Cl)c1)c1cccc2c1OCCO2` [Entry 38] are 0.05 µM and > 10 µM.
On the same counts, the results for `O=C(Nc1cccc(Cl)c1)c1ccccc1Cl` [Entry 13] are 12.3 µM and > 50 µM.
On the same counts, the results for `O=C(Nc1cccc(Cl)c1)c1c(Cl)cccc1Cl` [Entry 16] are 35.3 µM and > 50 µM.
In the case of `O=C(Nc1ccc(F)c(Cl)c1)c1cccc2c1OCCCO2` [Entry 44], the EC50 in data set [1] worked out at 1.1 µM. For the same compound, in data set [2], the CC50 at 48 h is > 25 µM.
For `O=C(Nc1cccc(Cl)c1)c1c(F)cccc1F` [Entry 15], the EC50 in data set [1] is 31.2 µM. Further, the CC50 at 48 h in data set [2] is > 50 µM.
On the same counts, the results for `O=C(Nc1ccc(F)c(F)c1)c1cccc2c1OCCCO2` [Entry 43] are 1.93 µM and > 25 µM.
